Experimental data as given in patent US4261977A, “Streptomycetal antibiotic” (Beecham Group Limited, priority 1975, dated 1981).
Counter-ions that a name gives are not always drawn.

Experiments:
[1] = tested on: β-lactamase producing strains of Staphylococcus aureus and Klebsiella aerogenes; assay: Synergy with β-lactam antibiotics (general statement); assay type: cell-based; conditions: substantially pure di-sodium salt; with ampicillin, amoxycillin and the like; certain bacteria
Klebsiella aerogenes = assay: Activity by conventional hole in plate method on agar; assay type: cell-based; conditions: yellow solid after cellulose chromatography; arbitrary units
Procedure: 300 ml. of 10% Pluronic L81 in soya-bean oil was added to prevent foaming. The fermentation was harvested after 48 hours and clarified by centrifugation. The clarified brew was arbitarily assigned an activity of 340 units/ml when assayed by the conventional hole in plate method on agar seeded with Klebsiella aerogenes.

[2] = tested on: gram-positive and gram-negative organisms; assay: Antibacterial activity determined by the microtiter method (general statement); assay type: cell-based; conditions: substantially pure di-sodium salt, certain gram-positive and gram-negative organisms
[3] = Stability of salts and unsalted acid; assay type: physicochemical; conditions: salts compared with unsalted acid; in solution
Streptococcus faecalis I = assay: Antibacterial activity, microtitre method (Table 2); assay type: cell-based; conditions: heavy inoculum
Procedure: (§1) The antibacterial activity of the material produced as above was determined by the microtitre method using the overnight inoculum of the test organism at 0.2% concentration. The synergistic activity of the di-sodium salt of MM 17880 in combination with ampicillin and with cephaloridine against Klebsiella aerogenes and Staphylococcus aureus Russell are shown in Table 3.
(§2) Microtitre heavy inoculum

Proteus morganii I580 = assay: as above; assay type: cell-based; conditions: heavy inoculum
Procedure: as §1, §2

[4] = tested on: Streptococcus pyogenes CN10; assay: as above; assay type: cell-based; conditions: heavy inoculum
Procedure: as §1, §2

| SMILES | synergy with β-lactam antibiotics [1] | activity (Klebsiella aerogenes) | antibacterial activity [2] | stability [3] | MIC (Streptococcus faecalis I) [µg/mL] | MIC (Proteus morganii I580) [µg/mL] | MIC [4] [µg/mL] |
| --- | --- | --- | --- | --- | --- | --- | --- |
| CC(=O)NCCSC1=C(C(=O)O)N2C(=O)C(C(C)OS(=O)(=O)O)C2C1 (stereo not shown) [di-sodium salt of MM 17880] | able to synergyse the anti-bacterial activity of β-lactam antibiotics | 16,000 units/mg | good level of antibacterial activity | – | – | – | – |
| CC(=O)NCCSC1=C(C(=O)O)N2C(=O)C(C(C)OS(=O)(=O)O)C2C1 (stereo not shown) [MM 17880] | – | – | – | tends to decompose in solution | 6.2 | 1.6 | < 0.04 |
